As a reminder, the IC50 is the concentration that gives 50% inhibition. Low values mean greater potency in that assay, high ones weaker potency in that assay.

One assay has as its target LZK (Homo sapiens (Human), UniProt O43283). Put plainly: LZK biochemical assay (TR-FRET, MKK7 phosphorylation). In short, it runs like this: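 Readout is the HTRF ratio (XL665/Eu) from an EDTA-containing detection mix of 0.4 nM Eu-anti-phospho-MKK7 (T275/S277) and 20 nM XL665-anti-His, incubated 16 h at 32° C. This followed a 90 min RT reaction of 10 nM LZK catalytic domain, 15 nM MKK7 and 15 μM ATP at pH 7.5.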
(In general: TR-FRET usually uses a lanthanide donor and a delayed reading to cut background.)

In another assay the target is DLK (Homo sapiens (Human), UniProt Q12852). The assay can be described thus: DLK biochemical assay (TR-FRET, MKK7 phosphorylation). The method in brief:
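TR-FRET ratio (665/Eu) reports MKK7 T275/S277 phosphorylation, lowered by DLK inhibition. Reaction: 60 μM ATP, 15 nM MKK7, 10 nM DLK catalytic domain, 90 min room temperature; detection incubation 16 h, 37° C. (1536-well) or 4° C. (384-well). Final concentrations.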

Chain of DLK (Q12852 1-520): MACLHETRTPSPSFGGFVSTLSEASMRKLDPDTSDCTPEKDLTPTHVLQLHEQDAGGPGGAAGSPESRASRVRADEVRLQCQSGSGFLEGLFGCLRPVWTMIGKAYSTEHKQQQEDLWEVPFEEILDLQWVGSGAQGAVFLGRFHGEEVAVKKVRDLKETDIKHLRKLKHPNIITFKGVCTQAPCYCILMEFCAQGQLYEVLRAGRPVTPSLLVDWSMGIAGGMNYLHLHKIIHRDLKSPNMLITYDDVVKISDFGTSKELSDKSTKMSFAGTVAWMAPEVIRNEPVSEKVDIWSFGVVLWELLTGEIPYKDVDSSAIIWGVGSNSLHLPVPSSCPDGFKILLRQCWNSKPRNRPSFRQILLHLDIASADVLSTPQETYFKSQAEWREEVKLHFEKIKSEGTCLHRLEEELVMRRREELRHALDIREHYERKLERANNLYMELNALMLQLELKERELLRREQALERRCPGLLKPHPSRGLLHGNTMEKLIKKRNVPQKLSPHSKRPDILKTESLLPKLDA
Chain of LZK (O43283 168-409): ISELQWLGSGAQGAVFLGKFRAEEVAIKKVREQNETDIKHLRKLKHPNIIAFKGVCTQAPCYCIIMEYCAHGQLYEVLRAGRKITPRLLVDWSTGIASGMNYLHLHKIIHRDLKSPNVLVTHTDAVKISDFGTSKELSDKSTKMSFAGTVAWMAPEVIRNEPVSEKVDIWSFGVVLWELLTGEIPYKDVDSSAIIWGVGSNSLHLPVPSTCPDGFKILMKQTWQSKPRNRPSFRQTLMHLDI

In the case of `CC(C)NS(=O)(=O)c1cc(-c2csc(C(=O)N[C@@H](C)c3ccc(F)cc3)c2)cn2nc(N)nc12` [Compound 384], the half-maximal inhibitory concentration (IC50) against LZK and at DLK was over 30000 nM in each case.
As for `CCNS(=O)(=O)c1cc(-c2csc(C(=O)N[C@@H](C)c3ccc(F)cc3)c2)cn2nc(N)nc12` [Compound 385], the values for the IC50 at LZK and at DLK were over 30000 nM and 11000 nM, respectively.
For `CNS(=O)(=O)c1cc(-c2csc(C(=O)N[C@@H](C)c3ccc(F)cc3)c2)cn2nc(N)nc12` [Compound 386] the same measures were over 30000 nM and 3400 nM.
For `COCc1cc(-c2csc(C(=O)NCc3ccc(F)cc3)c2)cn2nc(N)nc12` [Compound 387] the same measures were 2800 nM and 750 nM.
For `COCc1cc(-c2csc(C(=O)N[C@@H](C)c3ccc(F)cc3)c2)cn2nc(N)nc12` [Compound 388] the same measures were 1200 nM and 210 nM.
With `CC(C)c1nnc(-c2cc(-c3csc(C(=O)N[C@@H](C)c4ccc(F)cc4)c3)cn3nc(N)nc23)s1` [Compound 392], the IC50 against LZK was found to be 830 nM; against DLK, 100 nM.
For the compound `CCc1nnc(-c2cc(-c3csc(C(=O)NCc4ccc(F)cc4)c3)cn3nc(N)nc23)s1` [Compound 394], the results for the half-inhibitory concentration (IC50) against LZK and at DLK were 2500 nM and 410 nM, respectively.
For `CCc1nnc(-c2cc(-c3csc(C(=O)NCc4ccc(F)cc4)c3)cn3nc(N)nc23)o1` [Compound 395] the same measures were 3600 nM and 1100 nM.
For `CCc1nnc(-c2cc(-c3csc(C(=O)N[C@@H](C)c4ccc(F)cc4)c3)cn3nc(N)nc23)o1` [Compound 396] the same measures were 980 nM and 310 nM.
For `CCc1nnc(-c2cc(-c3csc(C(=O)N[C@@H](C)c4ccc(F)cc4)c3)cn3nc(N)nc23)s1` [Compound 397] the same measures were 1100 nM and 73 nM.
On to `CCC(C)c1nnc(-c2cc(-c3csc(C(=O)N[C@@H](CC)c4ccc(F)cc4)c3)cn3nc(N)nc23)s1` (some centres unmarked) [Compound 398], for which the results for the concentration for half-maximal inhibition (IC50) at LZK and against DLK were 3900 nM and 880 nM, respectively.
For `CCC(C)c1nnc(-c2cc(-c3csc(C(=O)N[C@@H](C)c4ccc(F)cc4)c3)cn3nc(N)nc23)s1` (some centres unmarked) [Compound 399] the same measures were 3950 nM and 1760 nM.
For `CCC(C)c1nnc(-c2cc(-c3csc(C(=O)NCc4ccc(F)cc4)c3)cn3nc(N)nc23)s1` (centres unmarked) [Compound 400] the same measures were 4350 nM and 2150 nM.
For `CC[C@H](NC(=O)c1cc(-c2cc(-c3nnc([C@@H](C)CO)s3)c3nc(N)nn3c2)cs1)c1ccc(F)cc1` [Compound 401] the same measures were 115 nM and 8.1 nM.
With `CC[C@H](NC(=O)c1cc(-c2cc(-c3cnn(CC(F)(F)F)c3)n3nc(N)nc3c2)cs1)c1ccc(F)cc1` [Compound 402], the half-inhibitory concentration (IC50) at LZK came out at 1900 nM; against DLK, 69 nM.
For `CC[C@H](NC(=O)c1cc(-c2cc(-c3cnn(CC(F)(F)F)c3)c3nc(N)nn3c2)cs1)c1ccc(F)cc1` [Compound 403] the same measures were 5700 nM and 140 nM.

The values are drawn from patent US20230382904A1, “SUBSTITUTED 4-([1,2,4]TRIAZOLO[1,5-a]PYRIDIN-6-YL)THIOPHENE-2-CARBOXAMIDE DERIVATIVES AND USE THEREOF” (The Johns Hopkins University, priority 2020, published 2023).
